Patent publication US11768205B2, “Methods and materials for identifying and treating cancers having elevated levels of phosphorylated ubiquitin” (Mayo Foundation for Medical Education and Research, priority 2017, dated 2023)

What was measured:
NIH-3T3 cells = test: Western blot of Ub conjugates after FGFb; assay type: cell-based, mouse
Method: FIG. 6. FGFR activation increases cellular Ub conjugates. (A to D). NIH-3T3 cells were serum starved for 48 hours and then treated with 20 ng/mL FGFb and harvested at different time course. Total Ub conjugates (A), K48-linked conjugates (B), and K63-linked conjugates (C) were determined by Western blot, and their intensities were quantitated and normalized to that of β-actin and then to time 0 in each group (D). Data were mean±SD of three independent experiments. (**: p<0.01, Student's t-test). (E to H). HEK293 cells were transfected with empty vector (Ctrl), FGFR2 wide type, or FGFR2 kinase dead mutant (KR). Total Ub conjugates (E), K48-linked conjugates (F), and K63-linked conjugates (G) were determined by Western blot, and their intensities were quantitated and normalized to that of β-actin and then to control in each group (H). Data were mean±SD of three independent experiments. (**: p<0.01, Student's t-test). (I to L). NIH-3T3 cells were serum starved for 48 hours and then treated with vehicle, FGFb, or FGFb and FGF inhibitor TKI-258. Total Ub conjugates (I), K48-linked conjugates (J), and K63-linked conjugates (K) were determined by Western blot, and their intensities were quantitated and normalized to that of β-actin and then to control in each group (L). Data were mean±SD of three independent experiments. (**: p<0.01, Student's t-test).
Cell lysates were prepared, and immunoprecipitation and immunoblotting were performed as described elsewhere (Deng et al., Mol. Cell, 61:614-624 (2016)). In brief, cells were lysed with NETN buffer (20 mM Tris-HCl, pH 8.0, 100 mM NaCl, 1 mM EDTA, 0.5% Nonidet P-40) containing 50 mM β-glycerophosphate, 10 mM NaF, and 1 mg/mL each of pepstatin A and aprotinin. Whole cell lysates were centrifuged at 12000 rpm for 15 minutes. Whole cell lysates were incubated with 2 of antibody and protein A or protein G Sepharose beads (Amersham Biosciences) for 2 hours or overnight at 4° C. The immunocomplexes were then washed with NETN buffer for three times and separated by SDS-PAGE. Immunoblotting was performed following standard procedures. […]

MDA-MB-468 cells [1] = test: Western blot of total, K48-linked and K63-linked Ub conjugates after EGF; assay type: cell-based, human
Method: FIG. 3. EGFR enhances proteasomal degradation and promotes K48-linked ubiquitin conjugates. (A). MDA-MB-468 cells were serum starved for 24 hours and labeled with ^35S-Met for 24 hours. […] The rate of protein degradation was shown as the fraction of radiolabelled protein remaining over time. Data were mean±SD of three independent experiments. (**: p<0.01, two-way ANOVA test). (B and C). MDA-MB-468 cells were treated as in (A), except that 20 nM bortezomib (B) or 10 μM chloroquine (C) was present in the chase media. Data were mean±SD of three independent experiments. (**: p<0.01, two-way ANOVA test). (D). […] Total Ub conjugates, K48-linked conjugates, and K63-linked conjugates were determined by Western blot, and their intensities were quantitated and normalized to that of β-actin and then to time 0 in each group. Data were mean±SD of three independent experiments. (**: p<0.01, Student's t-test). (E). […] Total Ub conjugates, K48-linked conjugates, and K63-linked conjugates were determined by Western blot, and their intensities were quantitated and normalized to that of β-actin and then to control in each group. Data were mean±SD of three independent experiments. […] Total Ub conjugates, K48-linked conjugates, and K63-linked conjugates were determined by Western blot, and their intensities were quantitated and normalized to that of β-actin and then to time 0 in each group. […]

[2] = test system: NIH-3T3 cells transformed by EGFR L858R; test: Cell proliferation and MTS assay; assay type: cell-based, mouse; conditions: EGFR L858R transformed cells compared to Ctrl cells; FIG. 14G
Method: FIG. 14. […] (A-D). NIH-3T3 cells were infected with virus expressing EGFR DM mutant. Cells were harvested at different times after infection. Total Ub conjugates (A), K48-linked conjugates (B), and K63-linked conjugates (C) were determined by Western blot, and their intensities were quantitated and normalized to that of β-actin. Data were mean±SD of three independent experiments. (**: p<0.01, Student's t-test). (E) NIH-3T3 cells were infected with virus expressing EGFR DM mutant. Cells were harvested at different times after infection. Cell lysates were blotted with an anti-pY59 antibody. (F). NIH-3T3 stably expressing empty vector (Ctrl) or EGFR L858R mutant were serum starved for 48 hours and were labeled with ^35S Met for 24 hours in the absence of serum. […] At different time points, cells were harvested, and radiolabeled protein remaining in the cell was measured. The rate of protein degradation was shown as the fraction of radiolabeled protein remaining over time. […]
90 μL of cells (5×10^5 cells/mL) were plated into each well of 96-well plates (Corning, Lowell, Mass.; MacLean et al., Bioinformatics, 26:966-968 (2010)) and were treated with 10 μL of bortezomib at the final concentrations of 0, 0.0457, 0.1372, 0.4115, 1.2346, 3.7037, 11.1111, 33.3333 and 100 nM. […] Plates were then read in a microplate reader at absorbance of OD 490 (Tecan AG, Switzerland).

MDA-MB-468 cells [3] = test: Pulse-chase measurement of protein degradation (35S-Met); assay type: cell-based, human
Method: FIG. 3. EGFR enhances proteasomal degradation and promotes K48-linked ubiquitin conjugates. (A). MDA-MB-468 cells were serum starved for 24 hours and labeled with ^35S-Met for 24 hours. […] The rate of protein degradation was shown as the fraction of radiolabelled protein remaining over time. Data were mean±SD of three independent experiments. (**: p<0.01, two-way ANOVA test). (B and C). MDA-MB-468 cells were treated as in (A), except that 20 nM bortezomib (B) or 10 μM chloroquine (C) was present in the chase media. Data were mean±SD of three independent experiments. (**: p<0.01, two-way ANOVA test). (D). […] Total Ub conjugates, K48-linked conjugates, and K63-linked conjugates were determined by Western blot, and their intensities were quantitated and normalized to that of β-actin and then to time 0 in each group. Data were mean±SD of three independent experiments. (**: p<0.01, Student's t-test). (E). […] Total Ub conjugates, K48-linked conjugates, and K63-linked conjugates were determined by Western blot, and their intensities were quantitated and normalized to that of β-actin and then to control in each group. Data were mean±SD of three independent experiments. (**: p<0.01, Student's t-test). (F). HEK293 cells were transfected with empty vector (Ctrl) or constitutively-active EGFR (encoding the T790M/L858R mutation) and treated with AG-1478. Total Ub conjugates, K48-linked conjugates, and K63-linked conjugates were determined by Western blot, and their intensities were quantitated and normalized to that of β-actin and then to time 0 in each group. Data were mean±SD of three independent experiments. (**: p<0.01, Student's t-test).
FIG. 4. EGF treatment raises the cellular content of Ub conjugates independent of EGFR ubiquitination and new protein synthesis. (A-D). […] Total Ub conjugates (A), K48-linked conjugates (B), and K63-linked conjugates were determined by Western Blot, and their intensities were quantitated and normalized to that of β-actin and then to control at time 0 in each group (D). Data were mean±SD of three independent experiments. (**: p<0.01, Student's t-test). (E). […] At different time points, cells were harvested, and radiolabeled protein remaining in the cell was measured. […] Cells were treated as illustrated in (A), and the radioactivity of remaining in cells was measured. […] The levels of Ub conjugates and β-actin were determined by Western blot (C) and quantitated (D). […]
To assess protein degradation, cells were starved for 30 minutes with methionine-free DMEM and pulse labelled for 16-24 hours with 0.5 mL of medium containing 0.1 mCi of ^35S-Met. […] After washing in cold PBS, cells were treated in chase medium for various times, and the remaining radioactivity in cells was measured as described elsewhere (Taelman et al., Cell, 143:1136-1148 (2010)). […]

MDA-MB-468 cells [4] = test: Immunoblot of Ub Y59 phosphorylation with anti-pY59 antibody; assay type: cell-based, human; conditions: 20 ng EGF, time dependent; FIG. 7D
Method: FIG. 7. EGFR phosphorylates ubiquitin. (A). An in vitro kinase assay was performed at 30° C. for 1 hour in the presence of EGFR and different tetra-Ub chain or free Ub. The gels were subjected to western blot with anti-phosphor-tyrosine antibody (upper panel) or Coomassie brilliant blue (CBB) staining (lower panel). (B). Lysates from EGF treated cells was trypsinized and subjected to liquid chromatography tandem mass spectrometry (LC-MS/MS) analysis. (C). […] Absolute quantification of […] and TLSD(pY)[…] from control of EGF treated cells were quantified by Parallel Reaction Monitoring. Data were mean±SD of three independent experiments. (**: p<0.01, Student's t-test). […] Cell lysates were blotted with the anti-pY59 antibody. (E). […] Cell lysates were blotted with antibodies against pY59 and β-actin. (F). WT Ub- and Ub Y59F-replacement cells were serum starved and induced with DOX for 72 hours to replace endogenous Ub with WT Ub or Ub Y59F. […] Cell lysates were blotted with antibodies against pY59 and β-actin.
Cell lysates were prepared, and immunoprecipitation and immunoblotting were performed as described elsewhere (Deng et al., Mol. Cell, 61:614-624 (2016)). In brief, cells were lysed with NETN buffer (20 mM Tris-HCl, pH 8.0, 100 mM NaCl, 1 mM EDTA, 0.5% Nonidet P-40) containing 50 mM β-glycerophosphate, 10 mM NaF, and 1 mg/mL each of pepstatin A and aprotinin. […]

Compound: CC(O)C(=O)O.CN1CCN(c2ccc3nc(-c4c(N)c5c(F)cccc5[nH]c4=O)[nH]c3c2)CC1 [TKI-258, Dovitinib (TKI 258)]
- effect on increase in Ub conjugates induced by FGFb (NIH-3T3 cells; FGFb and TKI-258, FIGS. 6I-L): blocked

Compound: N#CC(=C(/N)Sc1ccccc1N)/C(C#N)=C(\N)Sc1ccccc1N [U0126]
- effect on stimulation of Ub chain assembly by EGF (MDA-MB-468 cells [1]; pretreated 12 hours before EGF treatment, FIGS. 5B-E): did not affect

Compound: CC(C)C[C@H](NC(=O)[C@H](Cc1ccccc1)NC(=O)c1cnccn1)B(O)O [bortezomib]
- bortezomib sensitivity [2]: much higher

Compound: C[C@@H]1C[C@@H]([C@H](O)CC2CC(=O)NC(=O)C2)C(=O)[C@@H](C)C1 [cycloheximide]
- proteasomal proteolysis (MDA-MB-468 cells [3]; 100 μg/mL cycloheximide by itself, chloroquine in chase, FIG. 4G): reduced

Compound: EGF: growth factor used to activate EGFR (NSDSECPLSHDGYCLHDGVCMYIEALDKYACNCVVGYIGERCQYRDLKWWELR; Epidermal growth factor; UniProt P01133 971-1023, looked up)
- rate of protein degradation (MDA-MB-468 cells [3]; EGF in chase medium, FIG. 3A): decrease
- lysosome-dependent degradation (MDA-MB-468 cells [3]; EGF, in the presence of 20 nM bortezomib, FIG. 3B): inhibited
- proteasome-mediated proteolysis (MDA-MB-468 cells [3]; EGF, in the presence of 10 μM chloroquine, FIG. 3C): increased dramatically
- cellular ubiquitin conjugates (MDA-MB-468 cells [1]; 20 ng EGF, time dependent, FIG. 3D): significantly higher
- phosphorylation of Ub (MDA-MB-468 cells [4]): dramatic increase

Compound: FGFb: FGF basic, growth factor used to activate FGFR
- increase in total content of ubiquitinated proteins and K48-linked Ub conjugates (NIH-3T3 cells; 20 ng/mL FGFb for 20 minutes, FIGS. 6A-D): 50%
- treatment time to maximal increase in Ub conjugates (NIH-3T3 cells; 20 ng/mL FGFb, FIGS. 6A-D): 40 min
